Experimental data published in US20120208781A1, “AMINOGLYCOSIDE DOSING REGIMENS” (Achaogen, Inc., priority 2009, published 2012).
Like-named read-outs stand apart in the source and are kept apart here.

Experiments:
[1] = rat, in vivo
Protocol: The AGs were administered to the rats according to the dose levels depicted in Table 6. The animals of Groups 11-13 were housed until day 15 even though their dosing ended on day 5, such that all animals were necropsied on the same day. Blood was collected in EDTA at days 0, 6, 11, and 15. 750 uL blood samples were collected and aliquoted into a lithium heparin tube and an EDTA tube. Clinical chemistry analysis was performed using the Idexx VETTEST 8008 system. Kidney samples were embedded in paraffin, sectioned, stained with hematoxylin and eosin and examined microscopically.

rat kidney = experiment: Rat nephrotoxicity model: kidney histopathology (H&E); assay type: in vivo, Sprague-Dawley rats; conditions: rats, 14 d once-daily
Protocol: This rat nephrotoxicity study design used 14 days of once-daily dosing of aminoglycosides in adult Sprague-Dawley rats. Rats were allowed full access to food and water, and aminoglycosides were dosed subcutaneously at 1 mL/kg dosing volume, formulated in water. Nephrotoxicity was assessed by monitoring changes in serum markers of glomerular filtration rate (GFR), namely blood urea nitrogen (BUN) and serum creatinine. Microscopic examination of kidney slices after fixation and hematoxylin and eosin (H&E) staining was also utilized, scoring for tubular dilation, cellular casts, interstitial inflammation, and regenerative changes to the tubules.

NC[C@H]1O[C@H](O[C@H]2[C@H](O)[C@@H](O[C@H]3O[C@H](CO)[C@@H](O)[C@H](N)[C@H]3O)[C@H](N)C[C@@H]2N)[C@H](N)C[C@@H]1O [Tobramycin, tobramycin]
ALB, day 6 ([1]; 10 mg/kg): 4.0 g/dL | ALP, day 6 ([1]; 10 mg/kg): 670 U/L | ALT ([1]; 10 mg/kg): 41 | ALT, day 6 ([1]; 10 mg/kg): 29 U/L | AMYL, day 6 ([1]; 10 mg/kg): 1719 U/L | AST, day 6 ([1]; 10 mg/kg): 65 U/L | BUN, day 6 ([1]; 10 mg/kg): 16 mg/dL | Body weight Day 1 ([1]; 10 mg/kg): 243 g | Body weight Day 2 ([1]; 10 mg/kg): 256 g | Body weight Day 3 ([1]; 10 mg/kg): 264 g | Body weight Day 4 ([1]; 10 mg/kg): 277 g | Body weight Day 5 ([1]; 10 mg/kg): 271 g | Body weight Day 6 ([1]; 10 mg/kg): 291 g | Body weight Day 7 ([1]; 10 mg/kg): 299 g | Body weight Day 8 ([1]; 10 mg/kg): 307 g | Body weight Day 9 ([1]; 10 mg/kg): 315 g | Body weight Day 10 ([1]; 10 mg/kg): 327 g | Body weight Day 11 ([1]; 10 mg/kg): 333 g | Body weight Day 12 ([1]; 10 mg/kg): 330 g | Body weight Day 13 ([1]; 10 mg/kg): 347 g | Body weight Day 14 ([1]; 10 mg/kg): 352 g | CHOL, day 6 ([1]; 10 mg/kg): 78 mg/dL | Cre, day 6 ([1]; 10 mg/kg): 0.8 mg/dL | GLOB, day 6 ([1]; 10 mg/kg): 1.8 g/dL | GLU, day 6 ([1]; 10 mg/kg): 154 mg/dL | T-PRO, day 6 ([1]; 10 mg/kg): 5.9 g/dL | TBIL ([1]; 10 mg/kg): 0.1 | TBIL, day 6 ([1]; 10 mg/kg): 0.1 mg/dL | ALB, day 6 ([1]; 30 mg/kg): 4.0 g/dL | ALP, day 6 ([1]; 30 mg/kg): 583 U/L | ALT, day 6 ([1]; 30 mg/kg): 32 U/L | AMYL, day 6 ([1]; 30 mg/kg): 1658 U/L | AST, day 6 ([1]; 30 mg/kg): 65 U/L | BUN, day 6 ([1]; 30 mg/kg): 15 mg/dL | Body weight Day 1 ([1]; 30 mg/kg): 250 g | Body weight Day 2 ([1]; 30 mg/kg): 256 g | Body weight Day 3 ([1]; 30 mg/kg): 264 g | Body weight Day 4 ([1]; 30 mg/kg): 270 g | Body weight Day 5 ([1]; 30 mg/kg): 280 g | Body weight Day 6 ([1]; 30 mg/kg): 288 g | Body weight Day 7 ([1]; 30 mg/kg): 294 g | Body weight Day 8 ([1]; 30 mg/kg): 295 g | Body weight Day 9 ([1]; 30 mg/kg): 307 g | Body weight Day 10 ([1]; 30 mg/kg): 318 g | Body weight Day 11 ([1]; 30 mg/kg): 323 g | Body weight Day 12 ([1]; 30 mg/kg): 321 g | Body weight Day 13 ([1]; 30 mg/kg): 321 g | Body weight Day 14 ([1]; 30 mg/kg): 330 g | CA ([1]; 30 mg/kg): 11.2 | CHOL, day 6 ([1]; 30 mg/kg): 81 mg/dL | Cre, day 6 ([1]; 30 mg/kg): 0.7 mg/dL | GLOB, day 6 ([1]; 30 mg/kg): 1.8 g/dL | GLU, day 6 ([1]; 30 mg/kg): 155 mg/dL | Organ weights Heart ([1]; 30 mg/kg): 1.44 | Organ weights Kidney Rt. ([1]; 30 mg/kg): 2.1 | Organ weights Liver ([1]; 30 mg/kg): 11.3 | Organ weights Lung ([1]; 30 mg/kg): 2.96 | Organ weights Pancreas ([1]; 30 mg/kg): 0.85 | Organ weights testes ([1]; 30 mg/kg): 3.45 | T-PRO, day 6 ([1]; 30 mg/kg): 5.8 g/dL | TBIL ([1]; 30 mg/kg): 0.1 | TBIL, day 6 ([1]; 30 mg/kg): 0.1 mg/dL | ALB, day 6 ([1]; 100 mg/kg): 4.0 g/dL | ALP, day 6 ([1]; 100 mg/kg): 596 U/L | ALT, day 6 ([1]; 100 mg/kg): 36 U/L | AMYL, day 6 ([1]; 100 mg/kg): 1560 U/L | AST, day 6 ([1]; 100 mg/kg): 75 U/L | BUN, day 6 ([1]; 100 mg/kg): 19 mg/dL | Body weight Day 1 ([1]; 100 mg/kg): 246 g | Body weight Day 2 ([1]; 100 mg/kg): 251 g | Body weight Day 3 ([1]; 100 mg/kg): 259 g | Body weight Day 4 ([1]; 100 mg/kg): 264 g | Body weight Day 5 ([1]; 100 mg/kg): 268 g | Body weight Day 6 ([1]; 100 mg/kg): 277 g | Body weight Day 7 ([1]; 100 mg/kg): 281 g | Body weight Day 8 ([1]; 100 mg/kg): 287 g | Body weight Day 9 ([1]; 100 mg/kg): 280 g | Body weight Day 10 ([1]; 100 mg/kg): 293 g | Body weight Day 11 ([1]; 100 mg/kg): 296 g | Body weight Day 12 ([1]; 100 mg/kg): 283 g | Body weight Day 13 ([1]; 100 mg/kg): 296 g | Body weight Day 14 ([1]; 100 mg/kg): 299 g | CA, day 6 ([1]; 100 mg/kg): 10.8 mg/dL | CHOL, day 6 ([1]; 100 mg/kg): 82 mg/dL | Cre ([1]; 100 mg/kg): 0.8 | Cre, day 6 ([1]; 100 mg/kg): 0.7 mg/dL | GLOB, day 6 ([1]; 100 mg/kg): 1.6 g/dL | GLU, day 6 ([1]; 100 mg/kg): 148 mg/dL | T-PRO, day 6 ([1]; 100 mg/kg): 5.6 g/dL | TBIL ([1]; 100 mg/kg): 0.1 | TBIL, day 6 ([1]; 100 mg/kg): 0.1 mg/dL | Histopathology score (0 to 5 Scale): Casts (rat kidney; 10 mg/kg): 0 +/− 0 | Histopathology score (0 to 5 Scale): Dilation (rat kidney; 10 mg/kg): 0.4 +/− 0.9 | Histopathology score (0 to 5 Scale): Inflammation (rat kidney; 10 mg/kg): 0.4 +/− 0.9 | Histopathology score (0 to 5 Scale): Regeneration (rat kidney; 10 mg/kg): 1 +/− 1.4 | Histopathology score (0 to 5 Scale): Casts (rat kidney; 30 mg/kg): 0.8 +/− 0.4 | Histopathology score (0 to 5 Scale): Dilation (rat kidney; 30 mg/kg): 1.6 +/− 1.1 | Histopathology score (0 to 5 Scale): Inflammation (rat kidney; 30 mg/kg): 1.8 +/− 0.8 | Histopathology score (0 to 5 Scale): Regeneration (rat kidney; 30 mg/kg): 2.2 +/− 0.8 | Histopathology score (0 to 5 Scale): Casts (rat kidney; 100 mg/kg): 1.8 +/− 0.8 | Histopathology score (0 to 5 Scale): Dilation (rat kidney; 100 mg/kg): 1.6 +/− 1.1 | Histopathology score (0 to 5 Scale): Inflammation (rat kidney; 100 mg/kg): 2.4 +/− 0.9 | Histopathology score (0 to 5 Scale): Regeneration (rat kidney; 100 mg/kg): 3 +/− 0.7
